# Laboratory results: patent publication US4482553A, “Benzothienylglycyl cephalosporin derivatives” (priority 1983, dated 1984)
# Like-named read-outs stand apart in the source and are kept apart here.
# Experiments:
# Type in all cases: cell-based
# Staph. aureus [1] = test: standard in vitro agar dilution MIC (Table I), Staph. aureus
# Staph. epi [2] = test: standard in vitro agar dilution MIC (Table I), Staph. epi
# Strep. A = test: standard in vitro agar dilution MIC (Table I), Strep. A
# Strep. PN = test: standard in vitro agar dilution MIC (Table I), Strep. PN; conditions: strain PARK
# Strep. D = test: standard in vitro agar dilution MIC (Table I), Strep. D
# H. influ. [3] = test: standard in vitro agar dilution MIC (Table I), H. influ.
# Description: (§1) The antibacterial activity of several compounds of the invention has been determined in standard in vitro agar dilution assays against a variety of gram positive and gram negative microorganisms. The following Tables present typical minimum inhibitory concentrations (MIC's) in μg/ml for several compounds of the invention when evaluated against the indicated microorganisms. MIC's for several known compounds are also presented for comparison.
# E. coli = test: standard in vitro agar dilution MIC (Table I), E. coli; conditions: Escherichia coli
# Klebsiella = test: standard in vitro agar dilution MIC (Table I), Klebsiella
# Staph. epi [4] = test: Expanded Spectrum MIC (Table II), Staph. epi
# Description: as §1
# Staph. aureus [5] = test: Expanded Spectrum MIC (Table II), Staph. aureus
# Description: as §1
# H. influ. [6] = test: Expanded Spectrum MIC (Table II), H. influ.
# Description: as §1
# [7] = Staphylococcus aureus, strain V41, read-out: MIC
# [8] = Staphylococcus aureus, strain X1.1, read-out: MIC
# [9] = Staphylococcus aureus, strain X400, read-out: MIC
# [10] = Table I, agar dilution, strain 222, read-out: MIC
# [11] = Table I, agar dilution, strain EPI1, read-out: MIC
# [12] = Table I, agar dilution, strain C203, read-out: MIC
# [13] = Klebsiella, Table I, agar dilution, strain X26, read-out: MIC
# [14] = Klebsiella, Table I, agar dilution, strain X68, read-out: MIC
# [15] = Staphylococcus aureus, strain S13E
smiles,measurement,setting,value
"CC1=C(C(=O)O)N2C(=O)C(NC(=O)[C@@H](N)c3cc4c(Cl)cccc4s3)C2SC1 (stereo partly drawn) [Ex. 7B, L-7-(4-chloro-2-benzothienylglycylamido)-3-methyl-3-cephem-4-carboxylic acid]",MIC,Staph. aureus [1]; [7],16 µg/mL
same,MIC,Staph. aureus [1]; [8],2 µg/mL
same,MIC,Staph. aureus [1]; [9],128 µg/mL
same,MIC,Staph. epi [2]; [10],4 µg/mL
same,MIC,Staph. epi [2]; [11],8 µg/mL
same,MIC,Strep. A; [12],0.5 µg/mL
same,MIC,Strep. PN; read-out: MIC,2 µg/mL
same,MIC,"Strep. D; strain 2041, read-out: MIC",128 µg/mL
same,MIC,"Strep. D; strain X66, read-out: MIC",> 128 µg/mL
same,MIC,"H. influ. [3]; strain 76, read-out: MIC",4 µg/mL
same,MIC,"H. influ. [3]; strain C.L., read-out: MIC",64 µg/mL
same,MIC,E. coli; strain EC14,> 128 µg/mL
same,MIC,E. coli; strain N10,> 128 µg/mL
same,MIC,E. coli; strain TEM,> 128 µg/mL
same,MIC,"Klebsiella; Klebsiella, Table I, agar dilution, strain KAE, read-out: MIC",> 128 µg/mL
same,MIC,Klebsiella; [13],32 µg/mL
same,MIC,Klebsiella; [14],> 128 µg/mL
"CC1=C(C(=O)O)N2C(=O)[C@@H](NC(=O)[C@H](N)c3ccccc3)[C@H]2SC1 [Cephalexin, reference compound]",MIC,Staph. epi [2],8 µg/mL
same,MIC,Staph. epi [2]; [11],32 µg/mL
same,MIC,Strep. A,0.5 µg/mL
same,MIC,Strep. PN; read-out: MIC,2 µg/mL
same,MIC,H. influ. [3]; strain 76,8 µg/mL
same,MIC,H. influ. [3]; strain C.L.,8 µg/mL
same,MIC,Klebsiella; [13],4 µg/mL
same,MIC,Klebsiella; [14],8 µg/mL
"COc1c([C@H](N)C(=O)NC2C(=O)N3C(C(=O)O)=C(C)CSC23)sc2ccccc12 (stereo partly drawn) [Ex. 9B, L-7-(3-methoxy-2-benzothienylglycylamido)-3-methyl-3-cephem-4-carboxylic acid]",MIC,Staph. aureus [1]; [15],> 128 µg/mL
same,MIC,Staph. aureus [1]; [7],> 128 µg/mL
same,MIC,Staph. aureus [1]; [8],16 µg/mL
same,MIC,Staph. aureus [1]; [9],> 128 µg/mL
same,MIC,Staph. epi [2],128 µg/mL
same,MIC,Staph. epi [2]; [10],32 µg/mL
same,MIC,Strep. A; [12],4 µg/mL
same,MIC,Strep. PN; read-out: MIC,32 µg/mL
same,MIC,Strep. D; strain 2041,> 128 µg/mL
same,MIC,Strep. D; strain X66,> 128 µg/mL
same,MIC,"H. influ. [3]; strain 76, read-out: MIC",64 µg/mL
same,MIC,H. influ. [3]; strain C.L.,> 128 µg/mL
same,MIC,E. coli; strain EC14,> 128 µg/mL
same,MIC,E. coli; strain N10,> 128 µg/mL
same,MIC,E. coli; strain TEM,> 128 µg/mL
same,MIC,Klebsiella; Klebsiella,> 128 µg/mL
same,MIC,"Klebsiella; Table I, agar dilution, strain KAE",> 128 µg/mL
same,MIC,"Klebsiella; Table I, agar dilution, strain X68",> 128 µg/mL
"CC1(C)S[C@@H]2[C@H](NC(=O)[C@H](N)c3ccccc3)C(=O)N2[C@H]1C(=O)O [Ampicillin, reference compound]",MIC,Staph. aureus [1]; [15],64 µg/mL
same,MIC,Staph. epi [2]; [11],8 µg/mL
same,MIC,"Strep. D; strain 2041, read-out: MIC",2 µg/mL
same,MIC,"Strep. D; strain X66, read-out: MIC",4 µg/mL
same,MIC,H. influ. [3]; strain 76,16 µg/mL
same,MIC,H. influ. [3]; strain C.L.,0.5 µg/mL
same,MIC,E. coli; strain EC14,4 µg/mL
same,MIC,E. coli; strain N10,8 µg/mL
same,MIC,Klebsiella; [13],16 µg/mL
same,MIC,Klebsiella; [14],16 µg/mL
"CC1=C(C(=O)O)N2C(=O)C(NC(=O)C(N)c3cc4c(s3)CCCC4)C2SC1 [Ex. 5, D-7-[(4,5,6,7-tetrahydro-2-benzothienyl)glycylamido]-3-methyl-3-cephem-4-carboxylic acid]",MIC,Staph. aureus [1]; strain S13E,8 µg/mL
same,MIC,Staph. aureus [1]; strain V41,16 µg/mL
same,MIC,Staph. aureus [1]; strain X1.1,0.25 µg/mL
same,MIC,Staph. aureus [1]; strain X400,64 µg/mL
same,MIC,"Staph. epi [2]; Table I, agar dilution, strain 222",0.5 µg/mL
same,MIC,"Staph. epi [2]; Table I, agar dilution, strain EPI1",2 µg/mL
same,MIC,"Strep. A; Table I, agar dilution, strain C203",0.06 µg/mL
same,MIC,Strep. PN,0.25 µg/mL
same,MIC,H. influ. [3]; strain 76,4 µg/mL
same,MIC,H. influ. [3]; strain C.L.,16 µg/mL
same,MIC,"Klebsiella; Table I, agar dilution, strain X26",2 µg/mL
same,MIC,Staph. epi [4]; strain 219,0.5 µg/mL
same,MIC,Staph. epi [4]; strain 269,2 µg/mL
same,MIC,Staph. epi [4]; strain 270,0.5 µg/mL
same,MIC,Staph. epi [4]; strain 285,1 µg/mL
same,MIC,Staph. epi [4]; strain 286,0.25 µg/mL
same,MIC,Staph. epi [4]; strain EPI1,4 µg/mL
same,MIC,Staph. aureus [5]; strain 239,0.5 µg/mL
same,MIC,Staph. aureus [5]; strain S224,0.5 µg/mL
same,MIC,Staph. aureus [5]; strain S225,0.5 µg/mL
same,MIC,Staph. aureus [5]; strain S226,0.5 µg/mL
same,MIC,Staph. aureus [5]; strain S227,0.5 µg/mL
same,MIC,Staph. aureus [5]; strain S228,0.5 µg/mL
same,MIC,Staph. aureus [5]; strain S229,1 µg/mL
same,MIC,Staph. aureus [5]; strain S230,0.5 µg/mL
same,MIC,Staph. aureus [5]; strain S231,0.25 µg/mL
same,MIC,Staph. aureus [5]; strain S234,1 µg/mL
same,MIC,Staph. aureus [5]; strain S237,0.5 µg/mL
same,MIC,Staph. aureus [5]; strain S238,1 µg/mL
same,MIC,H. influ. [6]; strain 76,8 µg/mL
same,MIC,H. influ. [6]; strain 105,4 µg/mL
same,MIC,H. influ. [6]; strain 158,4 µg/mL
same,MIC,H. influ. [6]; strain 164,4 µg/mL
same,MIC,H. influ. [6]; strain 169,16 µg/mL
same,MIC,H. influ. [6]; strain 171,16 µg/mL
same,MIC,H. influ. [6]; strain 312,4 µg/mL
same,MIC,H. influ. [6]; strain 1683,4 µg/mL
same,MIC,H. influ. [6]; strain 1930,16 µg/mL
same,MIC,H. influ. [6]; strain 4842,4 µg/mL
same,MIC,H. influ. [6]; strain C.L.,16 µg/mL
same,MIC,H. influ. [6]; strain HESS,16 µg/mL
same,MIC,H. influ. [6]; strain M366,> 64 µg/mL
same,MIC,H. influ. [6]; strain M370,4 µg/mL
same,MIC,H. influ. [6]; strain M371,4 µg/mL
same,MIC,H. influ. [6]; strain R465,16 µg/mL
same,MIC,H. influ. [6]; strain STEL,> 64 µg/mL
"CC1=C(C(=O)O)N2C(=O)C(NC(=O)[C@H](N)c3cc4cc(Cl)ccc4s3)C2SC1 (stereo partly drawn) [Ex. 2, D-7-(5-Chloro-2-benzothienyl)glycylamido-3-methyl-3-cephem-4-carboxylic acid]",MIC,Staph. aureus [1]; [7],32 µg/mL
same,MIC,Staph. aureus [1]; [8],0.5 µg/mL
same,MIC,Staph. aureus [1]; [9],64 µg/mL
same,MIC,Staph. epi [2]; [10],1 µg/mL
same,MIC,Staph. epi [2]; [11],4 µg/mL
same,MIC,Strep. A; [12],0.125 µg/mL
same,MIC,Strep. PN; read-out: MIC,0.5 µg/mL
same,MIC,"H. influ. [3]; strain 76, read-out: MIC",0.5 µg/mL
same,MIC,"H. influ. [3]; strain C.L., read-out: MIC",2 µg/mL
same,MIC,Klebsiella; [13],32 µg/mL
same,MIC,"Staph. epi [4]; strain 219, read-out: MIC",0.25 µg/mL
same,MIC,"Staph. epi [4]; strain 269, read-out: MIC",1 µg/mL
same,MIC,"Staph. epi [4]; strain 270, read-out: MIC",1 µg/mL
same,MIC,"Staph. epi [4]; strain 285, read-out: MIC",0.5 µg/mL
same,MIC,"Staph. epi [4]; strain 286, read-out: MIC",0.25 µg/mL
same,MIC,"Staph. epi [4]; strain EPI1, read-out: MIC",4 µg/mL
same,MIC,"Staph. aureus [5]; Staphylococcus aureus, strain 239, read-out: MIC",0.5 µg/mL
same,MIC,"Staph. aureus [5]; Staphylococcus aureus, strain S224, read-out: MIC",0.25 µg/mL
same,MIC,"Staph. aureus [5]; Staphylococcus aureus, strain S225, read-out: MIC",0.25 µg/mL
same,MIC,"Staph. aureus [5]; Staphylococcus aureus, strain S226, read-out: MIC",0.5 µg/mL
same,MIC,"Staph. aureus [5]; Staphylococcus aureus, strain S227, read-out: MIC",0.25 µg/mL
same,MIC,"Staph. aureus [5]; Staphylococcus aureus, strain S228, read-out: MIC",0.25 µg/mL
same,MIC,"Staph. aureus [5]; Staphylococcus aureus, strain S229, read-out: MIC",0.5 µg/mL
same,MIC,"Staph. aureus [5]; Staphylococcus aureus, strain S230, read-out: MIC",0.25 µg/mL
same,MIC,"Staph. aureus [5]; Staphylococcus aureus, strain S231, read-out: MIC",0.25 µg/mL
same,MIC,"Staph. aureus [5]; Staphylococcus aureus, strain S234, read-out: MIC",0.5 µg/mL
same,MIC,"Staph. aureus [5]; Staphylococcus aureus, strain S237, read-out: MIC",0.5 µg/mL
same,MIC,"Staph. aureus [5]; Staphylococcus aureus, strain S238, read-out: MIC",1 µg/mL
same,MIC,"H. influ. [6]; strain 76, read-out: MIC",8 µg/mL
same,MIC,"H. influ. [6]; strain 1683, read-out: MIC",1 µg/mL
same,MIC,"H. influ. [6]; strain C.L., read-out: MIC",32 µg/mL
same,MIC,H. influ. [6]; strain M366,> 64 µg/mL
same,MIC,H. influ. [6]; strain STEL,> 64 µg/mL
